Like-named read-outs stand apart in the source and are kept apart here. Each block holds one compound with its values, some of them ahead of it.
Tests used:
FITC-BSA = target: T1, FITC-BSA (Bos taurus, UniProt P02769); assay: MST binding to FITC-BSA; parameters: species or system bovine; details: 0.41 μM BSA
T1 construct: purchased Millipore Sigma-Aldrich
Experimental: Herein, a commercial FITC labeling kit (Section 3) was used to fluorescently tag both IFN- α 2b and BSA. Typically, in the labeling process, one amine per protein is labeled, statistically distributing the position of the dye. […] The MST assay was performed as detailed in Section 3. The solutions were prepared with a concentration of IFN- α 2b and BSA fixed at 0.41 μ M in water. For IFN- α 2b a concentration of 2.7 μ M was also prepared to compare it with previous results on MST-binding between FILs and IFN- α 2b fluorescently labeled with a different tag. In each run of MST, a maximum concentration of a ligand is selected and consecutively diluted in sixteen capillaries. […] The experimental conditions of the MST assay only allow the study of the aggregation phenomenon individually for the first CAC.
Microscale thermophoresis (MST) measurements of the dye-labeled protein were used to conduct binding investigations. […] MST tests were conducted in a monolith NT.115 (blue/red) in accordance with the NanoTemper Technologies methodology. Medium MST power and 20% LED power (nano-blue) were set as the instrument’s default settings. For every MST measurement, a PBS buffer was used. The concentration of FITC-BSA was fixed at 0.4 μ M and FITC-IFN- α 2b was tested under two different concentrations (of 0.4 and 2.7 μ M). The ligand was used to create a set of 16 1:1 dilutions, with the starting ligand concentrations ranging from 10 to 400 mM. The typical parameters for MST traces were used for recording: […], 30 s MST power on, and 5 s MST power off. The data from three independently conducted pipetted experiments were examined using NanoTemper Technologies’ MO.Affinity Analysis software, version 2.3.

BSA = target: T2, BSA (Bos taurus, UniProt P02769); assay: Far-UV CD secondary structure of BSA (CONTIN-LL deconvolution); format: physicochemical, bovine; parameters: Regular Alpha Helix / Distorted Alpha Helix / Regular Beta Sheet / Distorted Beta Sheet / Turns / Unordered: unit not given here; details: 1.0 mg/mL BSA, 25 °C
T2 construct: purchased Millipore Sigma-Aldrich
Description: Circular dichroism (CD) is widely used to study the secondary structures of proteins, peptides and nucleic acids, because it requires a low concentration sample, is a nondestructive method, allows studying a wide range of variables (temperature, pH, etc.), and provides information on the effect of added ligands on protein folding and interactions. Far-UV (190–260 nm) CD spectroscopy was used to assess the IFN- α 2b and BSA secondary structure since the spectra are characteristic of different structural elements.
Circular dichroism (CD) spectra were collected in a 10 mm quartz cuvette and a Chirascan spectropolarimeter (Applied Photophysics, UK) at room temperature. All CD spectra were recorded in the far-UV range of 190 to 260 nm at scan rates of 50 nm/min, with 4 accumulations, and a response time of 3 s; CD spectra were collected. For each CD experiment, two distinct duplicates were acquired and combined. BSA was fixed at 1 mg/mL, solvent concentrations ranging from 0.1 to 200 mM were used, and the spectra were translated to MRE after being expressed in terms of molar ellipticity. Spectral deconvolution was carried out with DichroWeb using the CONTIN-LL deconvolution algorithm with the SMP180 reference set.

[1] = max. conc. first capillary below 1st CAC (monomer)

T1 sequence (P02769 25-607): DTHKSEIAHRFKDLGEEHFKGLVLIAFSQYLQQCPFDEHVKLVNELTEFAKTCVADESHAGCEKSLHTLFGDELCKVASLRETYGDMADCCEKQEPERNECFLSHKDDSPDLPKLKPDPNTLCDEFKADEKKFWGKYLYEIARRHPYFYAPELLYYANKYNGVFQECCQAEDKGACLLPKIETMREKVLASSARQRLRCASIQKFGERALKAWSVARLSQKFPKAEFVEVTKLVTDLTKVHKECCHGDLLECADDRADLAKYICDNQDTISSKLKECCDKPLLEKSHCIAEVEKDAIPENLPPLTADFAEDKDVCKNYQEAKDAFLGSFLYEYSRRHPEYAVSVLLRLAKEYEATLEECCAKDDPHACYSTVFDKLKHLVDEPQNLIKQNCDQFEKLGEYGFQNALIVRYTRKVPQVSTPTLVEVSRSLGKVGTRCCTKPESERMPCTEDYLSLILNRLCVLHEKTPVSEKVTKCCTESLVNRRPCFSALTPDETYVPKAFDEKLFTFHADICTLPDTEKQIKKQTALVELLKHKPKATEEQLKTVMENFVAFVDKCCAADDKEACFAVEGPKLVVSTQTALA
T2 sequence (P02769 25-607): as above

SMILES: CCn1cc[n+](C)c1.O=S(=O)([O-])C(F)(F)C(F)(F)C(F)(F)C(F)(F)F [1-ethyl-3-methylimidazolium perfluorobutane sulfonate]
Kd (FITC-BSA; [1]): no binding detected | Kd (FITC-BSA; max. conc. first capillary in 1st CAC range, read-out: Kd): 1610 ± 390 µM | Kd (FITC-BSA; max. conc. first capillary in 2nd CAC range, read-out: Kd): 1730 ± 420 µM | Kd (FITC-BSA; max. conc. first capillary in 3rd CAC range, read-out: Kd): 2860 ± 1460 µM | Kd (FITC-BSA; max. conc. first capillary in 4th CAC range): no binding detected | Distorted Alpha Helix (BSA; 0.1 mM component): 0.206 | Distorted Beta Sheet (BSA; 0.1 mM component): 0.029 | Regular Alpha Helix (BSA; 0.1 mM component): 0.407 | Regular Beta Sheet (BSA; 0.1 mM component): 0.000 | Turns (BSA; 0.1 mM component): 0.142 | Unordered (BSA; 0.1 mM component): 0.216 | Distorted Alpha Helix (BSA; 1 mM component): 0.210 | Distorted Beta Sheet (BSA; 1 mM component): 0.025 | Regular Alpha Helix (BSA; 1 mM component): 0.401 | Regular Beta Sheet (BSA; 1 mM component): 0.000 | Turns (BSA; 1 mM component): 0.137 | Unordered (BSA; 1 mM component): 0.226 | Distorted Alpha Helix (BSA; 5 mM component): 0.207 | Distorted Beta Sheet (BSA; 5 mM component): 0.027 | Regular Alpha Helix (BSA; 5 mM component): 0.406 | Regular Beta Sheet (BSA; 5 mM component): 0.007 | Turns (BSA; 5 mM component): 0.138 | Unordered (BSA; 5 mM component): 0.215 | Distorted Alpha Helix (BSA; 25 mM component): 0.197 | Distorted Beta Sheet (BSA; 25 mM component): 0.035 | Regular Alpha Helix (BSA; 25 mM component): 0.384 | Regular Beta Sheet (BSA; 25 mM component): 0.023 | Turns (BSA; 25 mM component): 0.149 | Unordered (BSA; 25 mM component): 0.212 | Distorted Alpha Helix (BSA; 55 mM component): 0.210 | Distorted Beta Sheet (BSA; 55 mM component): 0.026 | Regular Alpha Helix (BSA; 55 mM component): 0.402 | Regular Beta Sheet (BSA; 55 mM component): 0.000 | Turns (BSA; 55 mM component): 0.140 | Unordered (BSA; 55 mM component): 0.223 | Distorted Alpha Helix (BSA; 90 mM component): 0.207 | Distorted Beta Sheet (BSA; 90 mM component): 0.026 | Regular Alpha Helix (BSA; 90 mM component): 0.382 | Regular Beta Sheet (BSA; 90 mM component): 0.004 | Turns (BSA; 90 mM component): 0.142 | Unordered (BSA; 90 mM component): 0.239 | Distorted Alpha Helix (BSA; 120 mM component): 0.206 | Distorted Beta Sheet (BSA; 120 mM component): 0.032 | Regular Alpha Helix (BSA; 120 mM component): 0.405 | Regular Beta Sheet (BSA; 120 mM component): 0.014 | Turns (BSA; 120 mM component): 0.147 | Unordered (BSA; 120 mM component): 0.196 | Distorted Alpha Helix (BSA; 200 mM component): 0.183 | Distorted Beta Sheet (BSA; 200 mM component): 0.025 | Regular Alpha Helix (BSA; 200 mM component): 0.316 | Regular Beta Sheet (BSA; 200 mM component): 0.014 | Turns (BSA; 200 mM component): 0.108 | Unordered (BSA; 200 mM component): 0.354

Kd (FITC-BSA; max. conc. first capillary 12.5 mM (monomer)): no binding detected | Kd (FITC-BSA; max. conc. first capillary 400 mM (monomer)): no binding detected | Distorted Alpha Helix (BSA; 0.1 mM component): 0.207 | Distorted Beta Sheet (BSA; 0.1 mM component): 0.028 | Regular Alpha Helix (BSA; 0.1 mM component): 0.403 | Regular Beta Sheet (BSA; 0.1 mM component): 0.008 | Turns (BSA; 0.1 mM component): 0.141 | Unordered (BSA; 0.1 mM component): 0.212 | Distorted Alpha Helix (BSA; 1 mM component): 0.215 | Distorted Beta Sheet (BSA; 1 mM component): 0.023 | Regular Alpha Helix (BSA; 1 mM component): 0.419 | Regular Beta Sheet (BSA; 1 mM component): 0.000 | Turns (BSA; 1 mM component): 0.135 | Unordered (BSA; 1 mM component): 0.208 | Distorted Alpha Helix (BSA; 5 mM component): 0.209 | Distorted Beta Sheet (BSA; 5 mM component): 0.025 | Regular Alpha Helix (BSA; 5 mM component): 0.403 | Regular Beta Sheet (BSA; 5 mM component): 0.000 | Turns (BSA; 5 mM component): 0.136 | Unordered (BSA; 5 mM component): 0.227 | Distorted Alpha Helix (BSA; 25 mM component): 0.180 | Distorted Beta Sheet (BSA; 25 mM component): 0.031 | Regular Alpha Helix (BSA; 25 mM component): 0.297 | Regular Beta Sheet (BSA; 25 mM component): 0.020 | Turns (BSA; 25 mM component): 0.128 | Unordered (BSA; 25 mM component): 0.344 | Distorted Alpha Helix (BSA; 55 mM component): 0.217 | Distorted Beta Sheet (BSA; 55 mM component): 0.021 | Regular Alpha Helix (BSA; 55 mM component): 0.390 | Regular Beta Sheet (BSA; 55 mM component): 0.000 | Turns (BSA; 55 mM component): 0.131 | Unordered (BSA; 55 mM component): 0.240 | Distorted Alpha Helix (BSA; 90 mM component): 0.202 | Distorted Beta Sheet (BSA; 90 mM component): 0.026 | Regular Alpha Helix (BSA; 90 mM component): 0.382 | Regular Beta Sheet (BSA; 90 mM component): 0.007 | Turns (BSA; 90 mM component): 0.136 | Unordered (BSA; 90 mM component): 0.247 | Distorted Alpha Helix (BSA; 120 mM component): 0.212 | Distorted Beta Sheet (BSA; 120 mM component): 0.019 | Regular Alpha Helix (BSA; 120 mM component): 0.378 | Regular Beta Sheet (BSA; 120 mM component): 0.000 | Turns (BSA; 120 mM component): 0.126 | Unordered (BSA; 120 mM component): 0.266 | Distorted Alpha Helix (BSA; 200 mM component): 0.223 | Distorted Beta Sheet (BSA; 200 mM component): 0.024 | Regular Alpha Helix (BSA; 200 mM component): 0.411 | Regular Beta Sheet (BSA; 200 mM component): 0.000 | Turns (BSA; 200 mM component): 0.136 | Unordered (BSA; 200 mM component): 0.206
SMILES: CCCCn1cc[n+](C)c1.O=S(=O)([O-])C(F)(F)F [[C4C1Im][CF3SO3], 1-butyl-3-methylimidazolium trifluoromethanesulfonate]

SMILES: C[N+](C)(C)CCO.O=S(=O)([O-])C(F)(F)C(F)(F)C(F)(F)C(F)(F)F [[N1112(OH)][C4F9SO3], (2-hydroxyethyl)trimethylammonium perfluorobutane sulfonate]
Kd (FITC-BSA; [1]): no binding detected | Kd (FITC-BSA; max. conc. first capillary in 3rd CAC range): no binding detected | Distorted Alpha Helix (BSA; 0.1 mM component): 0.214 | Distorted Beta Sheet (BSA; 0.1 mM component): 0.025 | Regular Alpha Helix (BSA; 0.1 mM component): 0.418 | Regular Beta Sheet (BSA; 0.1 mM component): 0.000 | Turns (BSA; 0.1 mM component): 0.138 | Unordered (BSA; 0.1 mM component): 0.205 | Distorted Alpha Helix (BSA; 1 mM component): 0.225 | Distorted Beta Sheet (BSA; 1 mM component): 0.024 | Regular Alpha Helix (BSA; 1 mM component): 0.428 | Regular Beta Sheet (BSA; 1 mM component): 0.000 | Turns (BSA; 1 mM component): 0.138 | Unordered (BSA; 1 mM component): 0.185 | Distorted Alpha Helix (BSA; 5 mM component): 0.222 | Distorted Beta Sheet (BSA; 5 mM component): 0.025 | Regular Alpha Helix (BSA; 5 mM component): 0.423 | Regular Beta Sheet (BSA; 5 mM component): 0.000 | Turns (BSA; 5 mM component): 0.139 | Unordered (BSA; 5 mM component): 0.192 | Distorted Alpha Helix (BSA; 25 mM component): 0.215 | Distorted Beta Sheet (BSA; 25 mM component): 0.025 | Regular Alpha Helix (BSA; 25 mM component): 0.406 | Regular Beta Sheet (BSA; 25 mM component): 0.000 | Turns (BSA; 25 mM component): 0.140 | Unordered (BSA; 25 mM component): 0.214 | Distorted Alpha Helix (BSA; 55 mM component): 0.208 | Distorted Beta Sheet (BSA; 55 mM component): 0.027 | Regular Alpha Helix (BSA; 55 mM component): 0.392 | Regular Beta Sheet (BSA; 55 mM component): 0.000 | Turns (BSA; 55 mM component): 0.144 | Unordered (BSA; 55 mM component): 0.228 | Distorted Alpha Helix (BSA; 90 mM component): 0.199 | Distorted Beta Sheet (BSA; 90 mM component): 0.036 | Regular Alpha Helix (BSA; 90 mM component): 0.376 | Regular Beta Sheet (BSA; 90 mM component): 0.022 | Turns (BSA; 90 mM component): 0.152 | Unordered (BSA; 90 mM component): 0.215 | Distorted Alpha Helix (BSA; 120 mM component): 0.205 | Distorted Beta Sheet (BSA; 120 mM component): 0.032 | Regular Alpha Helix (BSA; 120 mM component): 0.400 | Regular Beta Sheet (BSA; 120 mM component): 0.012 | Turns (BSA; 120 mM component): 0.147 | Unordered (BSA; 120 mM component): 0.203 | Distorted Alpha Helix (BSA; 200 mM component): 0.207 | Distorted Beta Sheet (BSA; 200 mM component): 0.032 | Regular Alpha Helix (BSA; 200 mM component): 0.406 | Regular Beta Sheet (BSA; 200 mM component): 0.017 | Turns (BSA; 200 mM component): 0.147 | Unordered (BSA; 200 mM component): 0.191

Source: paper PMC10931833, “Simultaneous Purification of Human Interferon Alpha-2b and Serum Albumin Using Bioprivileged Fluorinated Ionic Liquid-Based Aqueous Biphasic Systems” (International Journal of Molecular Sciences, 2024)
